Test [1] has as its target T1, Mitogen-activated protein kinase 15 (Homo sapiens) (UniProt Q8TD08).
T1 sequence (whole entry): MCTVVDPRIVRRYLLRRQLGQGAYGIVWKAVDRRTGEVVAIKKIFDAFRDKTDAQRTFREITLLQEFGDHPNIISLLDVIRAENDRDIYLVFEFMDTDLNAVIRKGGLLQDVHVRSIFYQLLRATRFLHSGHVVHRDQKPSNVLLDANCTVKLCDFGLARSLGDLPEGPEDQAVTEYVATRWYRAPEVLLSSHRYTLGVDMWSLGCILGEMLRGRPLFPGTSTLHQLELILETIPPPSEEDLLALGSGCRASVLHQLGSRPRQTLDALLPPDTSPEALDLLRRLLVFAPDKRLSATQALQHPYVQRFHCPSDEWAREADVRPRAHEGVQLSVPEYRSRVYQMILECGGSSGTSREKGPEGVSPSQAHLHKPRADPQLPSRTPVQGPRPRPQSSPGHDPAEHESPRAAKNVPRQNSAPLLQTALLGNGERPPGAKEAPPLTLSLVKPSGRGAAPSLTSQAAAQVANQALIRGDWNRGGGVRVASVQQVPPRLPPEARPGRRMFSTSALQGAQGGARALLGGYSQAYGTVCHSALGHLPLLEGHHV
Nature of the test: Selectivity interaction (Ambit KINOMEscan and KiNATiv profiling in Jurkat cells) EUB0000090b MAPK15. The test is classed as cell-based. Conditions: at 1 µM.

Test [2] has as its target Proto-oncogene tyrosine-protein kinase Src (Homo sapiens, UniProt P12931). Nature of the test: Selectivity interaction (Ambit KINOMEscan and KiNATiv profiling in Jurkat cells) EUB0000090b SRC. The conditions noted are these: at 1 µM. The test is classed as cell-based.
Another test addresses Misshapen-like kinase 1 (Homo sapiens, UniProt Q8N4C8). Nature of the test: Selectivity interaction (KinomeScan (DiscoverX)) EUB0000607a MINK1. The conditions noted are these: at 10 µM.
In test [3] the target is Myosin light chain kinase, smooth muscle (Homo sapiens, UniProt Q15746). The conditions noted are these: at 10 µM.
In test [4] the target is Dual specificity mitogen-activated protein kinase kinase 2 (Homo sapiens) (UniProt P36507). The conditions noted are these: at 10 µM.
Sequence of Dual specificity mitogen-activated protein kinase kinase 2 (Homo sapiens) (P36507 whole entry): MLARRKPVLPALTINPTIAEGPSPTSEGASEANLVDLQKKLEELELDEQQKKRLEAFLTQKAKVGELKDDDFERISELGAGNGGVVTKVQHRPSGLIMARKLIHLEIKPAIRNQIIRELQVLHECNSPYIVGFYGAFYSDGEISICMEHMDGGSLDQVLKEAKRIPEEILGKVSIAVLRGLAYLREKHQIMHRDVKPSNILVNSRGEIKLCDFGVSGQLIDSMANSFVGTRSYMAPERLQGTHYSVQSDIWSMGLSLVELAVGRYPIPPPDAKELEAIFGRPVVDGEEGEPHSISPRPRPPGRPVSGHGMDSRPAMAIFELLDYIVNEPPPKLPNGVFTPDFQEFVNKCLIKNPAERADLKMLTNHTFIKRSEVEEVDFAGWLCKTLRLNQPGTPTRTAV
Test [5] concerns the target Phosphatidylinositol 4-kinase beta (Homo sapiens, UniProt Q9UBF8). Nature of the test: Selectivity interaction (ActivX KiNativ screen (kinase selectivity in THP-1 cell lysates)) EUB0000639a PI4KB. The test is classed as subcellular. The conditions noted are these: lysate, at 1 µM.
The target in test [6] is Serine/threonine-protein kinase Chk2 (Homo sapiens) (UniProt O96017). Nature of the test: Selectivity interaction (ActivX KiNativ screen (kinase selectivity in THP-1 cell lysates)) EUB0000639a CHEK2. The conditions noted are these: lysate, at 0.2 µM. The test is classed as subcellular.
In test [7] the target is DNA-dependent protein kinase catalytic subunit (Homo sapiens) (UniProt P78527). Nature of the test: Selectivity interaction (ActivX KiNativ screen (kinase selectivity in THP-1 cell lysates)) EUB0000639a PRKDC. The conditions noted are these: lysate, at 1 µM. The test is classed as subcellular.
Test [8] deals with Angiopoietin-1 receptor (Homo sapiens) (UniProt Q02763). Nature of the test: Selectivity interaction (KinomeScan (DiscoverX)) EUB0000695a TEK. The conditions noted are these: at 100 nM.
The test system of test [9] is Proto-oncogene tyrosine-protein kinase receptor Ret (Homo sapiens), P07949 [V804L]. Nature of the test: (§1) Selectivity interaction (KinomeScan (DiscoverX)) EUB0000695a RET. Conditions: at 100 nM.
Sequence of Proto-oncogene tyrosine-protein kinase receptor Ret (Homo sapiens), P07949 [V804L] (P07949 whole entry V804L): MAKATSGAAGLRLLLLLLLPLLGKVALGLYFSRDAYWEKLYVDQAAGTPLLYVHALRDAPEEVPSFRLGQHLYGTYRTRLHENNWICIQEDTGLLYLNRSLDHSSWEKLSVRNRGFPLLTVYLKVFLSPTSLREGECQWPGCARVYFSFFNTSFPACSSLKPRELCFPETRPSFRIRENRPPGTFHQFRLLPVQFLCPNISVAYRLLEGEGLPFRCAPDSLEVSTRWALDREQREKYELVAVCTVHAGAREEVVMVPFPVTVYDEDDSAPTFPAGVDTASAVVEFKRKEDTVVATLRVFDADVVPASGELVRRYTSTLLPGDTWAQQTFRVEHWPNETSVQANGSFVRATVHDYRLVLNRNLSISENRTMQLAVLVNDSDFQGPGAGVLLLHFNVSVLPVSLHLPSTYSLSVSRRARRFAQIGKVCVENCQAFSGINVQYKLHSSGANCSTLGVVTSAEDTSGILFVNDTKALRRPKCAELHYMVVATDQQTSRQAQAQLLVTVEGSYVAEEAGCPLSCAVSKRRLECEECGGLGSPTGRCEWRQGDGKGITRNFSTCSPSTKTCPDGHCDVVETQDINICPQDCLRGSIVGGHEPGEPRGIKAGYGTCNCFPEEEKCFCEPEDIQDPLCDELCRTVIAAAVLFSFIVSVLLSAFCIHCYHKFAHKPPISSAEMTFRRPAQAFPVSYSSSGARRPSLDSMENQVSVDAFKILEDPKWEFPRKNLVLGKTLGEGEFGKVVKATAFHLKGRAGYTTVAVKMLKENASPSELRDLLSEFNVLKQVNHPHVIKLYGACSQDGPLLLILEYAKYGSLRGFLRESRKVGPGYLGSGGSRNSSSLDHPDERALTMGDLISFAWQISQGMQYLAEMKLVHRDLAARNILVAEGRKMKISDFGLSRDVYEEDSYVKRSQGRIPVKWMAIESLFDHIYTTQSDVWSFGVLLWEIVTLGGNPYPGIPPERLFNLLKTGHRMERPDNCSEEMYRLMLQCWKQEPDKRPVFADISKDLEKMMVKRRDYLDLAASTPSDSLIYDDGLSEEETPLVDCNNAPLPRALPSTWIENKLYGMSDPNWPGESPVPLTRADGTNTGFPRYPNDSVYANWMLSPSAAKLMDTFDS
Test [10] concerns Proto-oncogene tyrosine-protein kinase receptor Ret (Homo sapiens), P07949 [V804M]. Described as §1. Conditions: at 100 nM.
Sequence of Proto-oncogene tyrosine-protein kinase receptor Ret (Homo sapiens), P07949 [V804M] (P07949 whole entry V804M): as the sequence (P07949 whole entry V804L) above, with L804M counted along it
For test [11], the system named is Proto-oncogene tyrosine-protein kinase receptor Ret (Homo sapiens), P07949 [M918T]. The description is as §1. Conditions: at 100 nM.
Sequence of Proto-oncogene tyrosine-protein kinase receptor Ret (Homo sapiens), P07949 [M918T] (P07949 whole entry M918T): as the sequence (P07949 whole entry V804L) above, with L804V, M918T counted along it
For test [12], the target named is Proto-oncogene tyrosine-protein kinase receptor Ret (Homo sapiens, UniProt P07949). The test is described as §1. The conditions noted are these: at 100 nM.
Sequence of Proto-oncogene tyrosine-protein kinase receptor Ret (P07949 whole entry): as the sequence (P07949 whole entry V804L) above, with L804V counted along it
Test [13] deals with Tyrosine-protein kinase JAK1 (Homo sapiens, UniProt P23458). Nature of the test: Selectivity interaction (KinomeScan (DiscoverX)) EUB0000045b JAK1. Conditions: at 1 µM.
Sequence of Tyrosine-protein kinase JAK1 (P23458 whole entry): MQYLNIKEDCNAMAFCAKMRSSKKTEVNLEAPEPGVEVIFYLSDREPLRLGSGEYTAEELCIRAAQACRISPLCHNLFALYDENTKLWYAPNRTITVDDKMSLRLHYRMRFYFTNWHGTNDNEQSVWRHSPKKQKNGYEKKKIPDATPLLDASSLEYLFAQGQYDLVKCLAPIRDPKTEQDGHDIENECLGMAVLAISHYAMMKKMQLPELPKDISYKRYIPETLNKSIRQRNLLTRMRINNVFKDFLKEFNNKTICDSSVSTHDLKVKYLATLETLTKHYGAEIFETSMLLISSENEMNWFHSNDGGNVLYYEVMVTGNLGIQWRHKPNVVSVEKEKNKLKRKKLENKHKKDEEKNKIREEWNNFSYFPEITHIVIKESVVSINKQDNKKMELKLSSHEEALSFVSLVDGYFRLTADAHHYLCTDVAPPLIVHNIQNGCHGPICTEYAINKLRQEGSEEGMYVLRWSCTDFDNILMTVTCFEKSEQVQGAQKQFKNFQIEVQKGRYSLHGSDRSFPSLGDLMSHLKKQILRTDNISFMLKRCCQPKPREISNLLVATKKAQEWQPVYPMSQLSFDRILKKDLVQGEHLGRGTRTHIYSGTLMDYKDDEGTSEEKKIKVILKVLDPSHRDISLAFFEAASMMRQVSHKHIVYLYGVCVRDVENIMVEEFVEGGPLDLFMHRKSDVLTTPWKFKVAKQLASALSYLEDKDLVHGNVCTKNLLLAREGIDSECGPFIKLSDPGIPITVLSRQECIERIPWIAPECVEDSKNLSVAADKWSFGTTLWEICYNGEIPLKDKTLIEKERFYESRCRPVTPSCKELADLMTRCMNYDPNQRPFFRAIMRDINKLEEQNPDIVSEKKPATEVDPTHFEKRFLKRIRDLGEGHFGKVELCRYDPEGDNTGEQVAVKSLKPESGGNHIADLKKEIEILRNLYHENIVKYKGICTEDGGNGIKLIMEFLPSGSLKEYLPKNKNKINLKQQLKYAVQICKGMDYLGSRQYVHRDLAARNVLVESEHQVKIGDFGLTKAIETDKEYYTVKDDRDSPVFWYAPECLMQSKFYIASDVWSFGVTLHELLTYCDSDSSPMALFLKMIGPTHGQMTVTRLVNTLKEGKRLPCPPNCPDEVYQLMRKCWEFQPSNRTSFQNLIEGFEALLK
Test [14] addresses T2, Ephrin type-B receptor 4 (Homo sapiens) (UniProt P54760).
T2 sequence (whole entry): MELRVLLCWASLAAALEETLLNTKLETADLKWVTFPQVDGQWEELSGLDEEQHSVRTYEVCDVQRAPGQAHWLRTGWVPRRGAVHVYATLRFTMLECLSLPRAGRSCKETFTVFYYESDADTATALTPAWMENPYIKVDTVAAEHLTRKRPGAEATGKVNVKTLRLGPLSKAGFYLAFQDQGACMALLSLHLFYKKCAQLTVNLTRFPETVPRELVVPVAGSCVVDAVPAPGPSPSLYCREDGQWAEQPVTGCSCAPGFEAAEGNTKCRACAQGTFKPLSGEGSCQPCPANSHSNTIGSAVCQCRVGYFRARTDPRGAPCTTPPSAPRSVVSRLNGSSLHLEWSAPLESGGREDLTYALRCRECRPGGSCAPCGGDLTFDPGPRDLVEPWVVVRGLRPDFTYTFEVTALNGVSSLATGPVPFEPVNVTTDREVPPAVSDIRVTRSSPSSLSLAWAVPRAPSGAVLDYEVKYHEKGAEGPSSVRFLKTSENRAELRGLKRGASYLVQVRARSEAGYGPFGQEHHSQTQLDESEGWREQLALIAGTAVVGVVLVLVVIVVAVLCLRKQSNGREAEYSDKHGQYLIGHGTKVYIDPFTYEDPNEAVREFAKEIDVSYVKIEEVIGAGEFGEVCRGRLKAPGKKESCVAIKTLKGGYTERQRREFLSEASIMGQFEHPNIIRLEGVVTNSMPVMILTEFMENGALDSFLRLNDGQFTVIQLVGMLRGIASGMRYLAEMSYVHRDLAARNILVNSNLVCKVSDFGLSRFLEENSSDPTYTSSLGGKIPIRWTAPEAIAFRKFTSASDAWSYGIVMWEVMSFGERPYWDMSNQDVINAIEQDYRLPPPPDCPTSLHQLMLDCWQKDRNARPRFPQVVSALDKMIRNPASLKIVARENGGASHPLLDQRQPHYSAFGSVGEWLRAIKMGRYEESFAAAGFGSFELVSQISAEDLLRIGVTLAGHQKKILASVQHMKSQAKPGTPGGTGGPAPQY
Nature of the test: Selectivity interaction (KinomeScan (DiscoverX)) EUB0000595a EPHB4. Conditions: at 10 µM.

Test [15] has as its target DNA (cytosine-5)-methyltransferase 3B (Homo sapiens) (UniProt Q9UBC3). Nature of the test: Selectivity interaction (Methyltransferase screen (radiometric assays, panel of 8 PRMTs, 21 protein lysine methyltransferases, 3 DNA methyltransferases, and one RNA methyltransferase)) EUB0000272b DNMT3B.

Sequence of Proto-oncogene tyrosine-protein kinase Src (P12931 2-536 limits assumed): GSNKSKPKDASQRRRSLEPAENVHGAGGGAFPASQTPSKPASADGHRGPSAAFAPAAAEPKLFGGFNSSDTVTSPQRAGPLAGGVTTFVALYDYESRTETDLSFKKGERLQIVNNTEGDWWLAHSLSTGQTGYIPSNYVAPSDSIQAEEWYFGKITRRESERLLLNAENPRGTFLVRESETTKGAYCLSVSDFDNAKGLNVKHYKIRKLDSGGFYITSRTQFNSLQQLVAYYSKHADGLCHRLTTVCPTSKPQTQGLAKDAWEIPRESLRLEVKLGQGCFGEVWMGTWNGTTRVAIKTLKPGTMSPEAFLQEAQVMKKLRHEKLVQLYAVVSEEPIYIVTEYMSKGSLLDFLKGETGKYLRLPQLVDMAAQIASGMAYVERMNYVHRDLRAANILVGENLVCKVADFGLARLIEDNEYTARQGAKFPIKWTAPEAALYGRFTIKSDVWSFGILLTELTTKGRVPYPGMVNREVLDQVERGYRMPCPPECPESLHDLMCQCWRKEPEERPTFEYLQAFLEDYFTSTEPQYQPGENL
Sequence of Misshapen-like kinase 1 (Q8N4C8 whole entry, looked up): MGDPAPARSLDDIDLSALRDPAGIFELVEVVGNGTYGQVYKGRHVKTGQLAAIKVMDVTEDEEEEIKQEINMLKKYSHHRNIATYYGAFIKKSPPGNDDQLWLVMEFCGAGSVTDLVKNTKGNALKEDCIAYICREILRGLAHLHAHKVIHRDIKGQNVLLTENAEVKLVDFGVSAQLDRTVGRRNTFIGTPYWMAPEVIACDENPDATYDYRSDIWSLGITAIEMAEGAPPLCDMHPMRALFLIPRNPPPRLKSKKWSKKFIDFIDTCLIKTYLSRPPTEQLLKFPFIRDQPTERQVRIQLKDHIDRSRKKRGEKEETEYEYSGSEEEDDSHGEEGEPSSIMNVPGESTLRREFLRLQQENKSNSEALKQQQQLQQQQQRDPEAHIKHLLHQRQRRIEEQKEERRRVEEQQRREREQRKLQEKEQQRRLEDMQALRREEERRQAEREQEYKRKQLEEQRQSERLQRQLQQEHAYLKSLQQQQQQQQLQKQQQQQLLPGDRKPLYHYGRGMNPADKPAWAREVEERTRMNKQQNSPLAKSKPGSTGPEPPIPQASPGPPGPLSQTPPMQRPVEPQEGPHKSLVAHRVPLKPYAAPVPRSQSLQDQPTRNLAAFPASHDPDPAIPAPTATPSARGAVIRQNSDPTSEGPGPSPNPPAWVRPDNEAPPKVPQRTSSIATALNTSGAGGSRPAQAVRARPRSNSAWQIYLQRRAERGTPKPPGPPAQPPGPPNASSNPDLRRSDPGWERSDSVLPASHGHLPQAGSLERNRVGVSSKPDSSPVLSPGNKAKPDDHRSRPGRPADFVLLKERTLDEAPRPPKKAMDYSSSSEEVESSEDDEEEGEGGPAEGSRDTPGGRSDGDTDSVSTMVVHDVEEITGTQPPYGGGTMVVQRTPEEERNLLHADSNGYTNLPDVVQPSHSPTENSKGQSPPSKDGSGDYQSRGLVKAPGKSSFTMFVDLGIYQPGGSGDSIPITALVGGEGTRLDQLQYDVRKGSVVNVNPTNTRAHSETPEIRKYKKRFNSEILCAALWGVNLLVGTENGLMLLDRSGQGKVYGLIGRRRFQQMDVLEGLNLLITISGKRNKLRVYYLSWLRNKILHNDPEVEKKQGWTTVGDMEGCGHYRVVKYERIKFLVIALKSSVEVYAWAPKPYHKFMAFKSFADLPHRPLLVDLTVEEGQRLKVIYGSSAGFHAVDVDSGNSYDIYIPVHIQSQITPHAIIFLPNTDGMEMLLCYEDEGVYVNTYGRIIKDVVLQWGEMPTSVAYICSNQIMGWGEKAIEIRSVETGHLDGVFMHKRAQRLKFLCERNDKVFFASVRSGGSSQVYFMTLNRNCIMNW

On to `CN(C)C/C=C/C(=O)Nc1ccc(C(=O)N2CCCC(Nc3ncc(Cl)c(-c4c[nH]c5ccccc45)n3)C2)cc1` (configuration not stated), for which the % of control in [1] amounted to 14%; in test [2] it was 90%.

At Misshapen-like kinase 1, `CNC(=O)Nc1ccc(-c2nc(N3CC4CCC(C3)O4)c3cnn(C4CCC5(CC4)OCCO5)c3n2)cc1` displayed a % of control of 100%.

In the case of `Cc1cc([C@@H](C)Nc2ccccc2C(=O)O)c2nc(N3CCOCC3)cc(=O)n2c1` [AZD-6482], the % of control in [3] and in [4] was 100% in each case.

As to `CC[C@@H]1[C@H](F)C(=O)N[C@@H]1COc1nccc2cc(C(N)=O)c(OC)cc12` [ZIMLOVISERTIB], the % of inhibition in [5] was -19.1%; in test [6], -0.3%; in test [7], 7.2%.

On to `Cc1cc(F)c(C(=O)Nc2cccc(-c3nncn3C(C)C)n2)cc1-n1cnc(C2CC2)c1`, for which the % of control in test [8] amounted to 100%; in test [9] it was 100%; in test [10], 98%; in [11], 100%; in [12], 96%.

Turning to `C=CC(=O)Nc1cc(-n2c(=O)ccc3cnc4ccc(-c5ccc(NS(C)(=O)=O)cc5)cc4c32)ccc1C`, the % of control in test [13] was determined as 99%.

Consider `COCC(=O)NC/C=C/c1ccc2ncnc(Nc3ccc(Oc4ccc(C)nc4)c(C)c3)c2c1` [CP-724714], for which, in [14], the % of control was 95%.

In the case of `Cc1cc(C)cc([C@H]2c3cc(C)ccc3NC(=O)CN2C(=O)c2ccc(Br)s2)c1`, the % of activity in test [15] (at 1 µM) amounted to 97.3%; in [15] (at 10 µM) it was 102%.

Source of the values: ChEMBL document CHEMBL5465560, “Selectivity Literature for EUbOPEN Chemogenomic Library” (2024).
